Reference: patent publication US8912209B2, “Rock inhibitors” (Amakem NV, priority 2010, dated 2014)

Target: T1, ROCKα/ROCKII (Homo sapiens, UniProt O75116)
T1 construct: purchased Upstate Biotechnology 14-451
Test: ROCK inhibition, Method 2 fluorescence polarization (FP) assay, ROCK IMAP Kit
Format: biochemical
Conditions: 10 μM ATP, read-out: IC50 Meth. 2
Method: The inhibition assays were performed with a fluorescence polarization (FP) assay using the commercially available ROCK IMAP Kit from Molecular Devices (Product ID. No. R8093), essentially in accordance with the protocol supplied by the manufacturer. […] The enzyme mix ROCKα/ROCKII was obtained from Upstate Biotechnology (Product ID No 14-451).
In summary, all compounds were screened in the wells of a 384 well plate for enzymatic inhibition with concentrations varying from 100 μM to 0.3 nM using a stepwise 3 (or 2)-fold dilution.
To perform the assay, 1 μl of a solution of the compound to be tested in DMSO (at each concentration) was added to 2 μl of a solution of the enzyme in 10 mM Tris-HCl, 10 mM MgCl2, 0.1% BSA, 0.05% NaN3, pH 7,2. The final concentration of the enzyme was 2.6 nM.
After incubating for 30 minutes at RT, 2 μl of a mixture of ATP and the protein substrate in 10 mM Tris-HCl, 10 mM MgCl2, 0.1% BSA, 0.05% NaN3, pH 7.2 was added. The final concentration of the ATP was 10 μM and final concentration of protein substrate was 0.2 μM.
After incubating for 60 minutes at RT, 12 μl of the IMAP Binding Solution (mix of the IMAP Binding Buffer A (1×) and the IMAP Binding Reagent (from the ROCK IMAP kit)) was added.
The mixture thus obtained (total volume: 17 μl) was incubated for 60 minutes at RT, upon which the fluorescence polarization was measured using an automated plate reader (Perkin Elmer, Model Envision 2100-0010 HTS) with FP filters: excitation filter FITC FP 480 and emission filters FITC FP P-pol 535 and FITC FP S-pol 535 (Perkin-Elmer). The results were fitted to a curve using the XL-Fit algorithm and IC50 values were calculated for each fitted curve, again using the XL-Fit algorithm.

T1 sequence (O75116 whole entry): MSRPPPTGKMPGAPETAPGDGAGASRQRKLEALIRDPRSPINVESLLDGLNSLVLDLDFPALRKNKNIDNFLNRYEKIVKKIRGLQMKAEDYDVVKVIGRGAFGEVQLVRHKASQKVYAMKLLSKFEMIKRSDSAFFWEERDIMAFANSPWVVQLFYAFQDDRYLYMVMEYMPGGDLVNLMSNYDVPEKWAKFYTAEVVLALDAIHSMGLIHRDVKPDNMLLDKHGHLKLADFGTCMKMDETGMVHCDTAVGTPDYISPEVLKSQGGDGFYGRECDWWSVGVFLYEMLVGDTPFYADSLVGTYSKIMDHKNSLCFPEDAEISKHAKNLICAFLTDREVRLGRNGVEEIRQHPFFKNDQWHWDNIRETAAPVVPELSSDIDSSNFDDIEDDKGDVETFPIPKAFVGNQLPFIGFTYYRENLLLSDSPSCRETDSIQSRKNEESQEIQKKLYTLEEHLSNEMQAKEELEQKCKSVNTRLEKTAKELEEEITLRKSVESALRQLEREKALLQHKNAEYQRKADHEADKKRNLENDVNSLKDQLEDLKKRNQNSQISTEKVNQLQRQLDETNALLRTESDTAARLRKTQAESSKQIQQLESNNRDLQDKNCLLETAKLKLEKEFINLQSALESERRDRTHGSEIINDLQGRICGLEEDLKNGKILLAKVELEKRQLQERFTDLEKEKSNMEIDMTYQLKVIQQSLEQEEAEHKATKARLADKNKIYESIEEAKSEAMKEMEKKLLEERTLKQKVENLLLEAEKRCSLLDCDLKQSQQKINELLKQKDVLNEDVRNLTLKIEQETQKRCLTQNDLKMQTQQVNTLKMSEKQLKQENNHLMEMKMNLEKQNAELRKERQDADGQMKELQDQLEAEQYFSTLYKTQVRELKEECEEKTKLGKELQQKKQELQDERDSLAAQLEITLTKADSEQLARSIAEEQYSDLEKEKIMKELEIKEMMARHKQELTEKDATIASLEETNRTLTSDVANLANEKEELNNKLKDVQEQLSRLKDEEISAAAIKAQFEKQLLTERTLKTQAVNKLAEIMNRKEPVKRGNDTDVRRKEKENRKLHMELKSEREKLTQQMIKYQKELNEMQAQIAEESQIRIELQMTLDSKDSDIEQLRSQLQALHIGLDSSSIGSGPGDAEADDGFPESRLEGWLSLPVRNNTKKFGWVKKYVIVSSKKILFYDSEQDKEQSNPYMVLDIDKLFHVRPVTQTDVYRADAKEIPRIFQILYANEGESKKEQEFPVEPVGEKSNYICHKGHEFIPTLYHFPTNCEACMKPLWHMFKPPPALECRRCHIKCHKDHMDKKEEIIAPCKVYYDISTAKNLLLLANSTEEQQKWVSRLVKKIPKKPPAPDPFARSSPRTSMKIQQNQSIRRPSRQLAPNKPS

Compound | IC50 [nM]
CC(N)c1ccc(C(=O)Nc2ccncc2)cc1-c1cccc(C(=O)OCC2CCc3ccccc3C2)c1 (stereo not shown) [Compound 94, 2′-(1-Amino-ethyl)-5′-(pyridin-4-ylcarbamoyl)-biphenyl-3-carboxylic acid 1,2,3,4-tetrahydro-naphthalen-2-ylmethyl ester] | 100 to 1000
CCCCCOC(=O)c1cccc(-c2cc(C(=O)Nc3ccncc3)ccc2C(C)N)c1 (stereo not shown) [Compound 16, 2′-(1-Amino-ethyl)-5′-(pyridin-4-ylcarbamoyl)-biphenyl-3-carboxylic acid pentyl ester] | 100 to 1000
CCOC(=O)CCNC(=O)c1cccc(-c2cc(C(=O)Nc3ccncc3)ccc2C(C)N)c1 (stereo not shown) [Compound 105, 3-{[2′-(1-Amino-ethyl)-5′-(pyridin-4-ylcarbamoyl)-biphenyl-3-carbonyl]-amino}-propionic acid ethyl ester] | < 100
CCCOC(=O)c1cccc(-c2cc(C(=O)Nc3ccncc3F)ccc2CN)c1 [Compound 174] | 100 to 1000
CC(N)c1ccc(C(=O)Nc2ccncc2)cc1-c1cccc(C(=O)OCC(F)(F)F)c1 (stereo not shown) [Compound 63, 2′-(1-Amino-ethyl)-5′-(pyridin-4-ylcarbamoyl)-biphenyl-3-carboxylic acid 2,2,2-trifluoro-ethyl ester] | 100 to 1000
CCCCCCCCCCOC(=O)c1cccc(-c2cc(C(=O)Nc3ccncc3)ccc2C(C)N)c1 (stereo not shown) [Compound 20, 2′-(1-Amino-ethyl)-5′-(pyridin-4-ylcarbamoyl)-biphenyl-3-carboxylic acid decyl ester] | 1000 to 10000
CC(N)c1ccc(C(=O)Nc2ccncc2)cc1-c1cccc(C(=O)OCC(Cl)(Cl)Cl)c1 (stereo not shown) [Compound 64, 2′-(1-Amino-ethyl)-5′-(pyridin-4-ylcarbamoyl)-biphenyl-3-carboxylic acid 2,2,2-trichloro-ethyl ester] | < 100
COc1cc(OC(=O)c2cccc(-c3cc(C(=O)Nc4ccncc4F)ccc3C(C)N)c2)cc(OC)c1OC (stereo not shown) [Compound 79, 2′-(1-Amino-ethyl)-5′-(3-fluoro-pyridin-4-ylcarbamoyl)-biphenyl-3-carboxylic acid 3,4,5-trimethoxy phenylester] | < 100
CC(N)c1ccc(C(=O)Nc2ccncc2)cc1-c1cccc(OCCSC2CCOC2=O)c1 (stereo not shown) [Compound 130, 6-(1-Amino-ethyl)-3′-[2-(2-oxo-tetrahydro-furan-3-ylsulfanyl)-ethoxy]-biphenyl-3-carboxylylic acid pyridin-4-ylamide] | < 100
CC(N)c1ccc(C(=O)Nc2ccncc2)cc1-c1cccc(C(=O)SC(C)(C)C)c1 (stereo not shown) [Compound 101, 2′-(1-Amino-ethyl)-5′-(pyridin-4-ylcarbamoyl)-biphenyl-3-carbothioic acid S-tert-butyl ester] | < 100
CCCCCCCCCCCCCOC(=O)c1cccc(-c2cc(C(=O)Nc3ccncc3)ccc2C(C)N)c1 (stereo not shown) [Compound 23, 2′-(1-Amino-ethyl)-5′-(pyridin-4-ylcarbamoyl)-biphenyl-3-carboxylic acid tridecyl ester] | 1000 to 10000
CCCCCCCCCCCOC(=O)c1cccc(-c2cc(C(=O)Nc3ccncc3)ccc2C(C)N)c1 (stereo not shown) [Compound 21, 2′-(1-Amino-ethyl)-5′-(pyridin-4-ylcarbamoyl)-biphenyl-3-carboxylic acid undecyl ester] | 1000 to 10000
CCCCCCCCCCCCCCCCOC(=O)c1cccc(-c2cc(C(=O)Nc3ccncc3)ccc2C(C)N)c1 (stereo not shown) [Compound 24, 2′-(1-Amino-ethyl)-5′-(pyridin-4-ylcarbamoyl)-biphenyl-3-carboxylic acid hexadecyl ester] | 1000 to 10000
COc1ccc(OC(=O)c2cccc(-c3cc(C(=O)Nc4ccncc4F)ccc3C(C)N)c2)cc1OC (stereo not shown) [Compound 78, 2′-(1-Amino-ethyl)-5′-(3-fluoro-pyridin-4-ylcarbamoyl)-biphenyl-3-carboxylic acid 3,4-dimethoxy-phenyl ester] | < 100
CC(N)c1ccc(C(=O)Nc2ccncc2)cc1-c1cccc(NC(=O)CC2CC(=O)Oc3ccccc32)c1 (stereo not shown) [Compound 155, 6-(1-Amino-ethyl)-3′-[2-(2-oxo-chroman-4-yl)-acetylamino]-biphenyl-3-carboxylic acid pyridin-4-ylamide] | < 100
CC(N)c1ccc(C(=O)Nc2ccncc2)cc1-c1cccc(C(=O)OC2CCCCC2)c1 (stereo not shown) [Compound 34, 2′-(1-Amino-ethyl)-5′-(pyridin-4-ylcarbamoyl)-biphenyl-3-carboxylic acid cyclohexyl ester] | < 100
2′-(1-Amino-ethyl)-5′- (pyridin-4-ylcarbamoyl)- biphenyl-3-carboxylic acid 4-methylsulfanyl-phenyl ester [Compound 86] | < 100
CCCCCCCCCCCCOC(=O)c1cccc(-c2cc(C(=O)Nc3ccncc3)ccc2C(C)N)c1 (stereo not shown) [Compound 22, 2′-(1-Amino-ethyl)-5′-(pyridin-4-ylcarbamoyl)-biphenyl-3-carboxylic acid dodecyl ester] | 1000 to 10000
NCc1ccc(C(=O)Nc2ccncc2F)cc1-c1cccc(C(=O)Oc2ccccc2)c1 [Compound 175] | < 100

Other lines, results leading:

IC50 [nM] | Compound
< 100 | COc1ccc(OC(=O)c2cccc(-c3cc(C(=O)Nc4ccncc4)ccc3C(C)N)c2)cc1OC (stereo not shown) [Compound 77, 2′-(1-Amino-ethyl)-5′-(pyridin-4-ylcarbamoyl)-biphenyl-3-carboxylic acid 3,4-dimethoxy-phenyl ester]
< 100 | CC(N)c1ccc(C(=O)Nc2ccncc2)cc1-c1cccc(C(=O)Oc2ccc(F)cc2)c1 (stereo not shown) [Compound 72, 2′-(1-Amino-ethyl)-5′-(pyridin-4-ylcarbamoyl)-biphenyl-3-carboxylic acid 4-fluoro-phenyl ester]
< 100 | CC(N)c1ccc(C(=O)Nc2ccncc2)cc1-c1cccc(C(=O)Oc2ccc3c(c2)OC(=O)CC3)c1 (stereo not shown) [Compound 176]
100 to 1000 | CC(N)c1ccc(C(=O)Nc2ccncc2)cc1-c1cccc(C(=O)OCc2ccc(Br)cc2)c1 (stereo not shown) [Compound 84, 2′-(1-Amino-ethyl)-5′-(pyridin-4-ylcarbamoyl)-biphenyl-3-carboxylic acid 4-bromo-benzyl ester]
< 100 | COc1cc(OC)cc(OC(=O)c2cccc(-c3cc(C(=O)Nc4ccncc4)ccc3C(C)N)c2)c1 (stereo not shown) [Compound 75, 2′-(1-Amino-ethyl)-5′-(pyridin-4-ylcarbamoyl)-biphenyl-3-carboxylic acid 3,5-dimethoxy-phenyl ester]
100 to 1000 | CC(N)c1ccc(C(=O)Nc2ccncc2)cc1-c1cccc(C(=O)OCCc2ccccc2)c1 (stereo not shown) [Compound 87, 2′-(1-Amino-ethyl)-5′-(pyridin-4-ylcarbamoyl)-biphenyl-3-carboxylic acid phenethyl ester]
< 100 | CSc1ccc(OC(=O)c2cccc(-c3cc(C(=O)Nc4ccncc4)ccc3C(C)N)c2)cc1 (stereo not shown) [Compound 82, 2′-(1-Amino-ethyl)-5′-(pyridin-4-ylcarbamoyl)-biphenyl-3-carboxylic acid 4-methylsulfanyl-phenyl ester]
< 100 | CC(C)COC(=O)c1cccc(-c2cc(C(=O)Nc3ccncc3)ccc2C(C)N)c1 (stereo not shown) [Compound 40, 2′-(1-Amino-ethyl)-5′-(pyridin-4-ylcarbamoyl)-biphenyl-3-carboxylic acid isobutyl ester]
< 100 | Cc1ccc(OC(=O)c2cccc(-c3cc(C(=O)Nc4ccncc4)ccc3C(C)N)c2)cc1 (stereo not shown) [Compound 73, 2′-(1-Amino-ethyl)-5′-(pyridin-4-ylcarbamoyl)-biphenyl-3-carboxylic acid p-tolyl ester]
